Assay results from patent US11919965B2, “Methods of treating multiple myeloma with bispecific anti-BCMA x anti-CD3 antibodies” (Regeneron Pharmaceuticals, Inc., priority 2019, dated 2024).
Read-outs that look alike come from different tables or passages of the source.

Key:
[1] = system: primary multiple myeloma blast cells; assay: FACS cytotoxicity assay, autologous T cell-mediated killing of primary multiple myeloma blast cells; format: cell-based, human; conditions: for EC50: read-out: MM Lysis EC50
Experimental: In order to monitor the specific killing of multiple myeloma cells by flow cytometry, bone marrow mononuclear cells (BMMC) from multiple myeloma patients were plated on human stromal cells (HS5) and rested overnight at 37 C. Separately, matching patient peripheral blood mononuclear cells (PBMC) were thawed and cultured in supplemented RPMI media at 1×10^6 cells/mL overnight at 37° C. in order to enrich for lymphocytes by depleting adherent cells. The next day, BMMC were co-incubated with adherent cell-depleted naïve PBMC on stromal cells (HS5) and a serial 10× dilution of BCMA×CD3 bispecific or 1-arm CD3 isotype control (starting concentration 66.7 nM) at 37° C. Cells were removed from cell culture plates at day 3, 4 or 7 and analyzed by FACS. For the assessment of specificity of killing, multiple myeloma cells were gated as single, live, CD90 negative (to exclude stromal cells), CD2 negative, CD56 positive. CD45 was low on multiple myeloma cells in most samples except MM455. Percent of live target cells was reported for the calculation of adjusted survival as follows: Adjusted survival=(R1/R2)*100, where R1=% live target cells in the presence of antibody, and R2=% live target cells in the absence of test antibody.
T cells were gated as CD2 positive, CD56 negative and either CD4 or CD8 positive. T cell activation was reported as the percent of CD25+CD4 or CD8 T cells out of total CD4 or CD8 T cells.

[2] = system: BCMA-expressing MOLP-8 multiple myeloma tumors; assay: Xenogenic tumor model, MOLP-8 + human PBMC s.c. in NSG mice, dose response (Example 13); format: in vivo, mouse
Experimental: To determine the in vivo efficacy of anti-BCMA×anti-CD3 bispecific antibodies (Abs), a xenogenic tumor study was performed. Immunodeficient NOD.Cg-Prkdc^scidII2rg^tm1Wjl/SzJ (NSG) mice were subcutaneously implanted with a mixture of 5×10^6 BCMA-expressing MOLP-8 human multiple myeloma tumor cells and 1×10^6 human peripheral blood mononuclear cells (PBMC) isolated from a normal, healthy donor. […] The mice were administered these Abs twice per week for a total of seven doses, and tumor growth was assessed over 56 days. While the BCMA+ MOLP-8 tumors grew similarly in the vehicle- and CD3-binding control-treated mice, both BCMA×CD3 Abs that were tested prevented the growth of tumors in a dose-dependent manner in vivo.
(§1) Implantation and measurement of xenogenic tumors: NSG mice were subcutaneously implanted with a mixture of 5×10^6 BCMA-expressing MOLP-8 multiple myeloma cells and 1×10^6 PBMC derived from a normal, healthy donor. […] The mice were administered Abs twice per week for a total of seven doses. Tumor growth was measured by caliper twice per week for the duration of the experiment.
(§2) Calculation of xenogenic tumor growth and inhibition: In order to determine tumor volume by external caliper, the greatest longitudinal diameter (length in mm) and the greatest transverse diameter (width in mm) were determined. Tumor volumes based on caliper measurements were calculated by the formula: Volume (mm^3)=(length× width^2)/2.

[3] = system: established BCMA-expressing NCI-H929 multiple myeloma tumors; assay: Xenogenic tumor model, established NCI-H929 tumors + human PBMC in NSG mice, treatment from day 5 (Example 12); format: in vivo, mouse; conditions: for Average Tumor Size (mm3) ± SEM on Day 5: day of first dose
Experimental: To determine the in vivo efficacy of anti-BCMA×anti-CD3 bispecific antibodies (Abs), a xenogenic tumor study was performed. Immunodeficient NOD.Cg-Prkdc^scidII2rg^tm1Wjl/SzJ (NSG) mice were subcutaneously implanted with a mixture of 10×10^6 BCMA-expressing NCI-H929 human multiple myeloma tumor cells and 0.5×10^6 human peripheral blood mononuclear cells (PBMC) isolated from a normal, healthy donor. The tumors were allowed to grow and establish for 5 days until they were approximately 70 mm^3 in size. […] The mice were administered these Abs twice per week for a total of seven doses, and tumor growth was assessed over 55 days.
as §1, with “10×10^6” for “5×10^6”, “NCI-H929” for “MOLP-8”, “0.5×10^6” for “1×10^6”, “donor. The tumors were allowed to grow and establish for 5 days until they were approximately 70 mm^3 in size.” for “donor.”, “with calipers” for “by caliper”
as §2

## REGN5458: anti-BCMA×anti-CD3 bispecific antibody: mAb21581 BCMA heavy chain, mAb7221G CD3 heavy chain and common light chain; SEQ ID NOs 126, 127, 129
[1]; Sample MM2, E:T 1.4, 7 days
  EC50: 0.747 nM
[1]; Sample MM2, newly diagnosed, E:T 1.4, 7 days
  % MM lysis at 66 nM: 88%
[1]; Sample MM369, newly diagnosed, E:T 0.3, 3 days
  % MM lysis at 66 nM: 96%
[1]; Sample MM453, E:T 2.4, 3 days
  EC50: 0.0989 nM
[1]; Sample MM453, newly diagnosed, E:T 2.4, 3 days
  % MM lysis at 66 nM: 82%
[1]; Sample MM455, E:T 0.4, 3 days
  EC50: 3.67 nM
[1]; Sample MM455, progression, treated, E:T 0.4, 3 days
  % MM lysis at 66 nM: 63%
[2]; 0.04 mg/kg
  Average Tumor Size (mm3) ± SEM on Day 3: 9.3 ± 2.4 mm3
  Average Tumor Size (mm3) ± SEM on Day 7: 18.3 ± 5.0 mm3
  Average Tumor Size (mm3) ± SEM on Day 10: 73.9 ± 25.7 mm3
  Average Tumor Size (mm3) ± SEM on Day 14: 255.4 ± 79.7 mm3
  Average Tumor Size (mm3) ± SEM on Day 17: 494.3 ± 144.3 mm3
  Average Tumor Size (mm3) ± SEM on Day 21: 1373.0 ± 366.6 mm3
  Average Tumor Size (mm3) ± SEM on Day 23: 1882.3 ± 551.5 mm3
  Average Tumor Size (mm3) ± SEM on Day 28: 2542.5 ± 613.3 mm3
  Average Tumor Size (mm3) ± SEM on Day 31: 2906.1 ± 532.6 mm3
  Average Tumor Size (mm3) ± SEM on Day 35: 3538.0 ± 0.0 mm3
[2]; 0.4 mg/kg
  Average Tumor Size (mm3) ± SEM on Day 3: 13.5 ± 1.5 mm3
  Average Tumor Size (mm3) ± SEM on Day 7: 1.0 ± 1.0 mm3
  Average Tumor Size (mm3) ± SEM on Day 10: 0 ± 0 mm3
  Average Tumor Size (mm3) ± SEM on Day 14: 0 ± 0 mm3
  Average Tumor Size (mm3) ± SEM on Day 17: 1.7 ± 1.7 mm3
  Average Tumor Size (mm3) ± SEM on Day 21: 5.3 ± 5.3 mm3
  Average Tumor Size (mm3) ± SEM on Day 23: 9.7 ± 9.7 mm3
  Average Tumor Size (mm3) ± SEM on Day 28: 47.4 ± 47.4 mm3
  Average Tumor Size (mm3) ± SEM on Day 31: 104.7 ± 92.6 mm3
  Average Tumor Size (mm3) ± SEM on Day 35: 375.1 ± 307.5 mm3
  Average Tumor Size (mm3) ± SEM on Day 42: 968.8 ± 689.2 mm3
  Average Tumor Size (mm3) ± SEM on Day 56: 1742.4 ± 635.2 mm3
[2]; 4 mg/kg
  Average Tumor Size (mm3) ± SEM on Day 3: 12.5 ± 1.3 mm3
  Average Tumor Size (mm3) ± SEM on Day 7: 0 ± 0 mm3
  Average Tumor Size (mm3) ± SEM on Day 10: 0 ± 0 mm3
  Average Tumor Size (mm3) ± SEM on Day 14: 0 ± 0 mm3
  Average Tumor Size (mm3) ± SEM on Day 17: 14.5 ± 7.3 mm3
  Average Tumor Size (mm3) ± SEM on Day 21: 102.7 ± 66.2 mm3
  Average Tumor Size (mm3) ± SEM on Day 23: 193.3 ± 117.7 mm3
  Average Tumor Size (mm3) ± SEM on Day 28: 627.4 ± 318.1 mm3
  Average Tumor Size (mm3) ± SEM on Day 31: 1018.5 ± 498.3 mm3
  Average Tumor Size (mm3) ± SEM on Day 35: 1342.9 ± 629.6 mm3
  Average Tumor Size (mm3) ± SEM on Day 42: 2363.0 ± 890.2 mm3
  Average Tumor Size (mm3) ± SEM on Day 49: 1683.5 ± 1683.5 mm3
  Average Tumor Size (mm3) ± SEM on Day 56: 3108.1 ± 3108.1 mm3
[3]; 0.04 mg/kg
  Average Tumor Size (mm3) ± SEM on Day 8: 130.3 ± 16.7 mm3
  Average Tumor Size (mm3) ± SEM on Day 15: 1031.2 ± 164.3 mm3
  Average Tumor Size (mm3) ± SEM on Day 19: 2467.5 ± 370.0 mm3
  Average Tumor Size (mm3) ± SEM on Day 22: 3745.7 ± 541.2 mm3
  Average Tumor Size (mm3) ± SEM on Day 27: 1589.1 ± 0 mm3
  Average Tumor Size (mm3) ± SEM on Day 30: 2886.5 ± 0 mm3
  Average Tumor Size (mm3) ± SEM on Day 5: 58.1 ± 5.6 mm3
[3]; 0.4 mg/kg
  Average Tumor Size (mm3) ± SEM on Day 8: 120.3 ± 16.3 mm3
  Average Tumor Size (mm3) ± SEM on Day 12: 262.7 ± 61.6 mm3
  Average Tumor Size (mm3) ± SEM on Day 15: 476.2 ± 133.5 mm3
  Average Tumor Size (mm3) ± SEM on Day 19: 1347.5 ± 334.7 mm3
  Average Tumor Size (mm3) ± SEM on Day 22: 2068.5 ± 465.0 mm3
  Average Tumor Size (mm3) ± SEM on Day 27: 3463.9 ± 1025.0 mm3
  Average Tumor Size (mm3) ± SEM on Day 30: 2144.2 ± 2144.2 mm3
  Average Tumor Size (mm3) ± SEM on Day 35: 0 ± 0 mm3
  Average Tumor Size (mm3) ± SEM on Day 40: 0 ± 0 mm3
  Average Tumor Size (mm3) ± SEM on Day 55: 0 ± 0 mm3
  Average Tumor Size (mm3) ± SEM on Day 5: 69.3 ± 7.3 mm3
[3]; 4 mg/kg
  Average Tumor Size (mm3) ± SEM on Day 8: 64.7 ± 16.4 mm3
  Average Tumor Size (mm3) ± SEM on Day 12: 19.5 ± 10.9 mm3
  Average Tumor Size (mm3) ± SEM on Day 15: 25.6 ± 19.2 mm3
  Average Tumor Size (mm3) ± SEM on Day 19: 40.6 ± 32.8 mm3
  Average Tumor Size (mm3) ± SEM on Day 22: 78.3 ± 60.8 mm3
  Average Tumor Size (mm3) ± SEM on Day 30: 411.3 ± 307.2 mm3
  Average Tumor Size (mm3) ± SEM on Day 35: 633.5 ± 473.5 mm3
  Average Tumor Size (mm3) ± SEM on Day 40: 369.5 ± 369.5 mm3
  Average Tumor Size (mm3) ± SEM on Day 55: 0 ± 0 mm3
  Average Tumor Size (mm3) ± SEM on Day 5: 71.9 ± 10.3 mm3
